Compound in assay [1]: C[C@@H](Oc1cc(-c2cnn(C3CCNCC3)c2)cnc1N)c1c(Cl)ccc(F)c1Cl [CRIZOTINIB]
As to the kind of experiment: surviving fraction relative to DMSO-only wells; higher = less growth inhibition. Particulars: exposure time: 5 days. In short, it runs like this: (§1)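 In 384-well plates, 250–500 log-phase tumour cells per well were given 24 hours before five days of continuous exposure to inhibitors at 0.5, 1, 5, 10, 50, 100, 500 and 1000 nM. Surviving fraction is luminescence from CellTiter-Glo, normalised to the median of wells containing DMSO alone. Reading took place after 10 minutes at room temperature.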

Compound in assay [2]: CN1CCN(c2nc(C3=C(c4c[nH]c5ccccc45)C(=O)NC3=O)c3ccccc3n2)CC1 [SOTRASTAURIN/AEB071]
The description is as above. Conditions: exposure time: 5 days. In short, it runs like this: as §1

This passage reports surviving fraction results from the supplement of paper PMC6045584.

± gives the standard deviation of the averaged measurements.

For 93VU HEADNECK, the surviving fraction came out at 1.08 ± 0.14 in assay [1] (0.5 nM); 1.09 ± 0.072 in assay [1] (1 nM); 1.08 ± 0.12 in assay [1] (5 nM); 1.16 ± 0.037 in assay [1] (10 nM); 1.14 ± 0.14 in assay [1] (50 nM); 1.18 ± 0.081 in assay [1] (100 nM). In addition, the surviving fraction in assay [1] (1000 nM) was determined as 0.853 ± 0.038; in assay [2] (0.5 nM), 1.03 ± 0.011; in assay [2] (1 nM) it was 1.01 ± 0.036; in assay [2] (5 nM) it was 1.07 ± 0.1; in assay [2] (10 nM), 0.9817 ± 0.005; in assay [2] (50 nM), 0.919 ± 0.067. Further, the surviving fraction in assay [2] (100 nM) turned out to be 0.887 ± 0.039; in assay [2] (500 nM), 0.757 ± 0.055; in assay [2] (1000 nM), 0.789 ± 0.048.
In the case of ZR751 BREAST, the surviving fraction was found to be 1.07 ± 0.14 in assay [1] (1 nM); 0.926 ± 0.024 in assay [1] (5 nM); 1.07 ± 0.1 in assay [1] (50 nM); 0.818 ± 0.095 in assay [1] (500 nM); 0.747 ± 0.07 in assay [1] (1000 nM); 1.19 ± 0.11 in assay [2] (0.5 nM). The surviving fraction in assay [2] (1 nM) turned out to be 1.3 ± 0.22; in assay [2] (5 nM), 1.1 ± 0.15; in assay [2] (10 nM), 1.16 ± 0.15; in assay [2] (50 nM), 1.07 ± 0.092; in assay [2] (100 nM), 1.1 ± 0.039; in assay [2] (500 nM), 0.983 ± 0.15. Further, the surviving fraction in assay [2] (1000 nM) came to 1 ± 0.12.
Take S68 BREAST: the surviving fraction in assay [1] (0.5 nM) turned out to be 0.895 ± 0.078; in assay [1] (1 nM) it was 1.16 ± 0.3; in assay [1] (5 nM), 1.04 ± 0.55; in assay [1] (10 nM) it was 0.981 ± 0.1; in assay [1] (50 nM), 1.17 ± 0.26; in assay [1] (500 nM), 0.417 ± 0.11. For the same test system, the surviving fraction in assay [1] (1000 nM) was 0.361 ± 0.049; in assay [2] (0.5 nM) it was 1.01 ± 0.3; in assay [2] (1 nM) it was 1.06 ± 0.074; in assay [2] (5 nM) it was 1.04 ± 0.15; in assay [2] (10 nM), 1.53 ± 0.22; in assay [2] (50 nM), 0.832 ± 0.079. The figures for the surviving fraction in assay [2] (100 nM), in assay [2] (500 nM) and in assay [2] (1000 nM) were 0.909 ± 0.13, 0.891 ± 0.12 and 1.08 ± 0.26, respectively.
As to SCC003 HEADNECK, the surviving fraction in assay [1] (0.5 nM) was 1.07 ± 0.043; in assay [1] (5 nM), 1.08 ± 0.13; in assay [1] (10 nM), 1.06 ± 0.064; in assay [1] (50 nM), 1.06 ± 0.045; in assay [1] (100 nM) it was 1.09 ± 0.058; in assay [1] (500 nM), 0.929 ± 0.1. Further, the surviving fraction in assay [1] (1000 nM) came out at 0.793 ± 0.044; in assay [2] (0.5 nM), 1.06 ± 0.027; in assay [2] (1 nM), 1.01 ± 0.12; in assay [2] (5 nM), 1.1 ± 0.026; in assay [2] (10 nM), 1.04 ± 0.061; in assay [2] (50 nM), 1.08 ± 0.13. The results for the surviving fraction in assay [2] (100 nM), in assay [2] (500 nM) and in assay [2] (1000 nM) were 0.949 ± 0.081, 0.998 ± 0.14 and 1.04 ± 0.099, respectively.
On to 22RV1 PROSTATE, for which the surviving fraction was determined as 0.993 ± 0.1 in assay [1] (0.5 nM); 1.11 ± 0.083 in assay [1] (1 nM); 1.11 ± 0.091 in assay [1] (50 nM); 0.976 ± 0.16 in assay [1] (100 nM); 0.459 ± 0.024 in assay [1] (1000 nM); 1.08 ± 0.014 in assay [2] (0.5 nM). The surviving fraction in assay [2] (1 nM) came to 1.11 ± 0.026; in assay [2] (5 nM), 0.985 ± 0.013; in assay [2] (10 nM), 1.05 ± 0.054; in assay [2] (50 nM), 1.24 ± 0.26; in assay [2] (100 nM) it was 1.2 ± 0.17; in assay [2] (500 nM), 1.06 ± 0.099. For the same test system, in assay [2] (1000 nM), the surviving fraction was determined as 1.03 ± 0.051.
For A549 LUNG, the surviving fraction in assay [1] (0.5 nM) was determined as 1.07 ± 0.027; in assay [1] (1 nM), 1.07 ± 0.015; in assay [1] (50 nM), 1.09 ± 0.023; in assay [1] (100 nM), 1.1 ± 0.025; in assay [1] (500 nM) it was 1.09 ± 0.043; in assay [1] (1000 nM) it was 0.649 ± 0.07. The surviving fraction in assay [2] (0.5 nM) stood at 1.059 ± 0.0099; in assay [2] (1 nM) it was 1.11 ± 0.015; in assay [2] (5 nM), 1.076 ± 0.0085; in assay [2] (10 nM), 1.06 ± 0.017; in assay [2] (50 nM), 1.07 ± 0.021; in assay [2] (100 nM), 1.102 ± 0.0085. For the same test system, the surviving fraction amounted to 1.07 ± 0.03 in assay [2] (500 nM) and 1.06 ± 0.048 in assay [2] (1000 nM).
In the case of SG43 HEADNECK, the surviving fraction in assay [1] (0.5 nM) was found to be 1.28 ± 0.25; in assay [1] (1 nM), 1.06 ± 0.15; in assay [1] (5 nM), 1.02 ± 0.062; in assay [1] (10 nM) it was 0.947 ± 0.31; in assay [1] (50 nM), 0.87 ± 0.073; in assay [1] (100 nM), 0.756 ± 0.094. For the same test system, the surviving fraction came to 0.586 ± 0.027 in assay [1] (500 nM); 0.271 ± 0.03 in assay [1] (1000 nM); 1.21 ± 0.12 in assay [2] (0.5 nM); 0.963 ± 0.1 in assay [2] (1 nM); 0.92 ± 0.087 in assay [2] (5 nM); 0.761 ± 0.09 in assay [2] (10 nM). Besides, the surviving fraction came out at 0.961 ± 0.15 in assay [2] (50 nM), 1.14 ± 0.21 in assay [2] (100 nM), 1.31 ± 0.11 in assay [2] (500 nM) and 1.15 ± 0.088 in assay [2] (1000 nM).
Consider “JURKAT HAEMATOPOIETIC AND LYMPHOID TISSUE”, for which the surviving fraction turned out to be 1.04 ± 0.011 in assay [1] (0.5 nM); 0.96 ± 0.035 in assay [1] (10 nM); 0.928 ± 0.028 in assay [1] (100 nM); 0.212 ± 0.0087 in assay [1] (500 nM); 0.306 ± 0.011 in assay [1] (1000 nM); 1.08 ± 0.047 in assay [2] (0.5 nM). Also, the surviving fraction in assay [2] (1 nM) amounted to 1.13 ± 0.017; in assay [2] (5 nM) it was 1.09 ± 0.042; in assay [2] (10 nM), 1.08 ± 0.041; in assay [2] (50 nM) it was 1.06 ± 0.012; in assay [2] (100 nM), 1.03 ± 0.022; in assay [2] (500 nM) it was 1.06 ± 0.044. The surviving fraction in assay [2] (1000 nM) was determined as 1.05 ± 0.032.
As to 143B BONE, the surviving fraction amounted to 1.08 ± 0.012 in assay [1] (5 nM); 1.09 ± 0.015 in assay [1] (50 nM); 0.865 ± 0.011 in assay [1] (1000 nM); 1.067 ± 0.0071 in assay [2] (0.5 nM); 1.08 ± 0.037 in assay [2] (1 nM); 1.14 ± 0.14 in assay [2] (5 nM). Also, the surviving fraction in assay [2] (10 nM) was 1.04 ± 0.014; in assay [2] (50 nM), 1.09 ± 0.037; in assay [2] (100 nM) it was 1.14 ± 0.11; in assay [2] (500 nM) it was 1.12 ± 0.096; in assay [2] (1000 nM), 1.09 ± 0.063.
